The results in this text go back to patent US12667572B2, “Tricyclic compounds useful in the treatment of cancer, autoimmune and inflammatory disorders” (SCHRÖDINGER, INC., priority 2021, dated 2026).

The target of assay [1] is T1, full-length MALT1 protein His-MALT1(1-824) (Homo sapiens, UniProt Q9UDY8).
T1 construct: full-length MALT1 protein His-MALT1(1-824); His (N); made in house; host or cells: baculovirus-infected insect cells
T1 sequence (Q9UDY8 1-824): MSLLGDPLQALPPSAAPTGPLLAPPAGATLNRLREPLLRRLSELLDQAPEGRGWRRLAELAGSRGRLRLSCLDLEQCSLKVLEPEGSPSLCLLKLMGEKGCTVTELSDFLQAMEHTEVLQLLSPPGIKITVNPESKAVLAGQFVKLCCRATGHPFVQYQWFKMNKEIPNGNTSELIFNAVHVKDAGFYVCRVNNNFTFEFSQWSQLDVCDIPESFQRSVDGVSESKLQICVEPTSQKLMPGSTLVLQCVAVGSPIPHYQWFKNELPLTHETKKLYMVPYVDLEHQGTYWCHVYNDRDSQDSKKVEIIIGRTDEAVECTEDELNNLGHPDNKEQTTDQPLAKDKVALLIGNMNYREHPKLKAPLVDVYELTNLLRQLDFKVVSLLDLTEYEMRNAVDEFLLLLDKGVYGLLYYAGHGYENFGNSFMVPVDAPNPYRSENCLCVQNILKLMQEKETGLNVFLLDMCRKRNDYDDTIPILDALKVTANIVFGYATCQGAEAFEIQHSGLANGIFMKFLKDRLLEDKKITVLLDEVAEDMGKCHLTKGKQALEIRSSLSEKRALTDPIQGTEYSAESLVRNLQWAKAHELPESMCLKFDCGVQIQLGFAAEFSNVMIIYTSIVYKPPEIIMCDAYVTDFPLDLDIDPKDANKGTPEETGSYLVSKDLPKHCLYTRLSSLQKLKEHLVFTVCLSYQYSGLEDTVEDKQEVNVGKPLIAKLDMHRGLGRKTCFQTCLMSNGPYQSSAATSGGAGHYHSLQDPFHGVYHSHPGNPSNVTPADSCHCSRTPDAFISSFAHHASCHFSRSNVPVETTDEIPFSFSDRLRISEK
Put plainly: MALT1 protease assay, Assay 2 (1 nM MALT1, Ac-LRSR-AMC substrate). The format is biochemical. The conditions noted are these: 1 nM MALT1, 50 μM Ac-LRSR-AMC, 2 h pre-incubation, 8 hr incubation at RT. Put shortly: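 Compounds (0.1% DMSO final) sat 2 h at RT with insect-cell-expressed His-MALT1(1-824), in 50 mM Tris pH 7.5, 600 mM sodium citrate, 1 mM DTT, 1 mM EDTA, 0.05% BSA. Cleavage of 50 μM Ac-LRSR-AMC (Km ~100 μM) ran 8 h at RT, read as AMC fluorescence. IC50 and Hill coefficient fitted to % remaining activity.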

Assay [2] deals with IL10 secretion in OCI-LY10 cells. In words: Human IL10 secretion assay, Assay 2 (MSD). The format is cell-based. The following applies: Homo sapiens, 24 h incubation, Meso Scale Discovery, read-out: IL-10 Secretion IC50 [nM] Assay 2.

In the case of `CC1(C)CC(C(=O)Nc2cnc(-n3nccn3)c(C(F)(F)F)c2)c2cnc3cc(F)nn3c21` (single isomer, unassigned) [Example 151, N-(6-(2H-1,2,3-triazol-2-yl)-5-(trifluoromethyl)pyridin-3-yl)-2-fluoro-8,8-dimethyl-7,8-dihydro-6H-cyclopenta[e]pyrazolo[1,5-a]pyrimidine-6-carboxamide], the 50% inhibitory concentration (IC50) (in general, the concentration at which inhibition is half-maximal) in assay [1] is under 10 nM; in assay [2] it was 10 to 100 nM.

For the compound `Cc1cc2cc(F)c3c(n2n1)C(C)(C)CC3C(=O)Nc1cnc(-n2nccn2)c(Cl)c1` (single isomer, unassigned) [Example 157, N-(5-chloro-6-(2H-1,2,3-triazol-2-yl)pyridin-3-yl)-5-fluoro-2,8,8-trimethyl-7,8-dihydro-6H-cyclopenta[e]pyrazolo[1,5-a]pyridine-6-carboxamide], the IC50 is 10 to 100 nM in assay [1] and at least 1000 nM in assay [2].

Turning to `C[C@H](O)c1cnn(-c2ncc(NC(=O)[C@H]3CC4(CCC4)c4c3cnc3cc(Cl)nn43)cc2Cl)n1` (single isomer, unassigned) [Example 158], the values for the IC50 in assay [1] and in assay [2] were 10 to 100 nM and 100 to 1000 nM, respectively.

For the compound `C[C@@H](O)c1cnn(-c2ncc(NC(=O)[C@H]3CC4(CCC4)c4c3cnc3cc(Cl)nn43)cc2Cl)n1` (single isomer, unassigned) [Example 160], the IC50 in assay [1] is under 10 nM; in assay [2], 10 to 100 nM.

For `Cc1cn2ncc3c(c2n1)C(C)(C)CC3C(=O)Nc1cnc(-n2nccn2)c(Cl)c1` (single isomer, unassigned) [Example 189, N-(5-chloro-6-(2H-1,2,3-triazol-2-yl)pyridin-3-yl)-2,9,9-trimethyl-8,9-dihydro-7H-cyclopenta[d]imidazo[1,2-b]pyridazine-7-carboxamide], the IC50 in assay [1] was under 10 nM; in assay [2], 100 to 1000 nM.

Regarding `CC1(C)CC(C(=O)Nc2cnc(OC(F)F)c(Cl)c2)c2cnn3cc(Cl)nc3c21` (single isomer, unassigned) [Example 191, 2-chloro-N-(5-chloro-6-(difluoromethoxy)pyridin-3-yl)-9,9-dimethyl-8,9-dihydro-7H-cyclopenta[d]imidazo[1,2-b]pyridazine-7-carboxamide], the results for the concentration for half-maximal inhibition (IC50) in assay [1] and in assay [2] were under 10 nM and 100 to 1000 nM, respectively.

Turning to `CC1(C)CC(C(=O)Nc2cnc(-n3nccn3)c(C(F)(F)F)c2)c2cnn3cc(Cl)nc3c21` (single isomer, unassigned) [Example 193, N-(6-(2H-1,2,3-triazol-2-yl)-5-(trifluoromethyl)pyridin-3-yl)-2-chloro-9,9-dimethyl-8,9-dihydro-7H-cyclopenta[d]imidazo[1,2-b]pyridazine-7-carboxamide], the IC50 in assay [1] was under 10 nM; in assay [2], 10 to 100 nM.

`CC1(C)CC(C(=O)Nc2cnc(-n3nccn3)c(Cl)c2)c2cnn3cc(Cl)nc3c21` (single isomer, unassigned) [Example 195, 2-chloro-N-(5-chloro-6-(2H-1,2,3-triazol-2-yl)pyridin-3-yl)-9,9-dimethyl-8,9-dihydro-7H-cyclopenta[d]imidazo[1,2-b]pyridazine-7-carboxamide]: the IC50 is under 10 nM in assay [1] and 10 to 100 nM in assay [2].

Turning to `CC1(C)CC(C(=O)Nc2cnc(-c3nnn(CCO)n3)c(Cl)c2)c2cnc3cc(Cl)nn3c21` (stereo not drawn) [Example 123, 2-chloro-N-(5-chloro-6-(2-(2-hydroxyethyl)-2H-tetrazol-5-yl)pyridin-3-yl)-8,8-dimethyl-7,8-dihydro-6H-cyclopenta[e]pyrazolo[1,5-a]pyrimidine-6-carboxamide], the IC50 is 10 to 100 nM in assay [1] and at least 1000 nM in assay [2].
